# Tests used:
# [1] = molecular target: T1, human RORgt nuclear receptor (RORgT ligand binding domain protein) (Homo sapiens, UniProt P51449); assay: ROR-gamma binding assay (Scintillation Proximity Assay, displacement of [3H]-25-hydroxycholesterol); details: EC50, SPA, 15 nM [3H]-25-Hydroxycholesterol, RORgT LBD 12 nM
# T1 construct: purchased Proteros Biostructures GmbH
# T1 sequence (P51449 with tags, fused parts or gaps): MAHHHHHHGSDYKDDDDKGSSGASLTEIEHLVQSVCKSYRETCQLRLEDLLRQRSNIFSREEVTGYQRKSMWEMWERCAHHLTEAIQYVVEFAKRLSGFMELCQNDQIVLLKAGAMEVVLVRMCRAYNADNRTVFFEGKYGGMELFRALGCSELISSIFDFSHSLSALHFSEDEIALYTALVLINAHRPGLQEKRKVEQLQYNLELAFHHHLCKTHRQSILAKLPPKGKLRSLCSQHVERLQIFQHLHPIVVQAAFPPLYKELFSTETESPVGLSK
# Method: This assay is used to evaluate the binding affinity of compounds to the ligand-binding pocket of the human RORgt nuclear receptor based on displacement of a radio-ligand. The EC50 values are calculated using a four parameter fit. Compounds binding with high affinity to RORgt will have low EC50 values.
# The assay is a Scintillation Proximity Assay (SPA) that involves competition between an unlabeled test compound and tritium-labeled 25-hydroxycholesterol for binding to RORgT ligand binding domain (LBD) protein immobilized on the surface of SPA beads. These beads contain a scintillant that emits light if excited by a radioactive particle, and this light is detected using a scintillation counter. In this assay, tritium-labelled 25-hydroxycholesterol is used as radiotracer.
# 400 nL of titrated test and reference compounds in DMSO were transferred by the Echo liquid handling system to a 384-well assay plate followed by addition of 5 μL [3H]-25-Hydroxycholesterol (Perkin Elmer) and 35 μL diluted RORgT LBD protein with the following amino acid sequence (HIS-FLG-tag): MAHHHHHHGSDYKDDDDKGSSGASLTEIEHLVQSVCKSYRETCQLRLEDLLRQRSNIFSREEVTGYQRKSMWEMWERCAHHLTEAIQYVVEFAKRLSGFMELCQNDQIVLLKAGAMEVVLVRMCRAYNADNRTVFFEGKYGGMELFRALGCSELISSIFDFSHSLSALHFSEDEIALYTALVLINAHRPGLQEKRKVEQLQYNLELAFHHHLCKTHRQSILAKLPPKGKLRSLCSQHVERLQIFQHLHPIVVQAAFPPLYKELFSTETESPVGLSK (SEQ ID NO: 1) (Purchased from Proteros Biostructures GmbH). After 30 min of preincubation, 40 μL of HIS-TAG PVT SPA beads (Perkin Elmer) were added. The plates were then incubated for minimum 4 hours at room temperature in darkness before measuring the SPA signal using a MicroBeta plate scintillation counter. Final assay conditions were: 50 mM HEPES pH 7.4, 150 mM NaCl, 5 mM MgCl2, 0.1% BSA, 4 μg/well HIS-TAG PVT SPA Beads, 30 ng/well RORgT LBD (equal to a final concentration of 12 nM), 15 nM [^3H]-25-Hydroxycholesterol, 0.5% DMSO and varying concentrations of test compound in a total volume of 80 μL/well. EC50 values were calculated using a 4-parameter non-linear regression curve-fitting model.
# [2] = system: IL-17A in Human peripheral mononuclear cells; assay: Human PBMC IL-17A assay; assay type: cell-based; details: 72 h, EC50, antiCD3/antiCD28-coated beads, 3 days, alpha-LISA
# Method: This assay measures the IL-17A inhibitory potential of test compounds in Human peripheral mononuclear cells.
# Peripheral blood mononuclear cells (PBMC) were isolated from human buffy coats using density grade centrifugation (Lymphoprep, Medinor), washed twice in PBS and frozen at −150° C. for later use.
# Test compounds were diluted in DMSO and 70 nL of titrated test and reference compounds were transferred by the Echo liquid handling system to a 384-well assay plate in to give a final concentration of 0.1% DMSO in the wells.
# The PBMC were thawed, washed and suspended in RPMI-1640 supplemented with pen/strep, glutamax and 10% bovine calf serum. The cells were mixed with antiCD3/antiCD28-coated beads (1 cells pr one bead) (Milteney T-cell expansion kit), and immediately thereafter the cells were pipetted to the plate at 130,000c/well. The plate was incubated for 3 days in humidified air/CO2 (95%/5%) On day 3 the level of IL-17A in the culture supernatant is measured using alpha-LISA kit (Perkin Elmer). Cell viability was measured by adding 6 uL pr well Prestoblue© (Life Technologies) and incubating for 2 hours followed by fluorescent measurement (Ex535/Em615). EC50 values were calculated using a 4-parameter non-linear regression curve-fitting model. Donors may be pre-screened in order to select PBMC with a high secretion of IL-17A.
# [3] = system: IL-17A levels in human peripheral blood; assay: tissue or blood; assay type: cell-based; details: 72 h, read-out: Human Whole blood IL-17A (nM)
Compound,EC50 [1] [nM],EC50 [2] [nM],EC50 [3] [nM]
"Cc1c(CN2CCN(C(=O)c3ccccc3)[C@@H](C)C2)cc(Cl)cc1Nc1nnc(C#N)o1 [Example 1, 5-[3-[[(3S)-4-benzoyl-3-methyl-piperazin-1-yl]methyl]-5-chloro-2-methyl-anilino]-1,3,4-oxadiazole-2-carbonitrile]",40.2,3030,–
"COCc1nnc(Nc2cc(Cl)cc(CN3CCN(C(=O)c4ccccc4)[C@@H](C)C3)c2C)o1 [Example 2, [(2S)-4-[[5-chloro-3-[[5-(methoxymethyl)-1,3,4-oxadiazol-2-yl]amino]-2-methyl-phenyl]methyl]-2-methyl-piperazin-1-yl]-phenyl-methanone]",29,137,454
"Cc1c(CN2CCN(C(=O)c3ccccc3)[C@@H](C)C2)cc(Cl)cc1Nc1nnc(C2CCOC2)o1 (stereo partly drawn) [Example 3, [(2S)-4-[[5-chloro-2-methyl-3-[(5-tetrahydrofuran-3-yl-1,3,4-oxadiazol-2-yl)amino]phenyl]methyl]-2-methyl-piperazin-1-yl]-phenyl-methanone]",22.3,51.1,204
"Cc1c(CN2CCN(C(=O)c3ccccc3)[C@@H](C)C2)cc(Cl)cc1Nc1nnc(C2CCCO2)o1 (stereo partly drawn) [Example 4, [(2S)-4-[[5-chloro-2-methyl-3-[(5-tetrahydrofuran-2-yl-1,3,4-oxadiazol-2-yl)amino]phenyl]methyl]-2-methyl-piperazin-1-yl]-phenyl-methanone]",29.9,34.7,428
"Cc1c(CN2CCN(C(=O)c3ccccc3)[C@@H](C)C2)cc(Cl)cc1Nc1nnc(C2CC2)o1 [Example 5, [(2S)-4-[[5-chloro-3-[(5-cyclopropyl-1,3,4-oxadiazol-2-yl)amino]-2-methyl-phenyl]methyl]-2-methyl-piperazin-1-yl]-phenyl-methanone]",22.6,69.7,385
"Cc1c(CN2CCN(C(=O)c3ccccc3)[C@@H](C)C2)cc(Cl)cc1Nc1nnc(C2(O)CC2)o1 [Example 6, [(2S)-4-[[5-chloro-3-[[5-(1-hydroxycyclopropyl)-1,3,4-oxadiazol-2-yl]amino]-2-methyl-phenyl]methyl]-2-methyl-piperazin-1-yl]-phenyl-methanone]",31.7,234,504
"Cc1c(CN2CCN(C(=O)c3ccccc3)[C@@H](C)C2)cc(Cl)cc1Nc1nnc(CCC#N)o1 [Example 7, 3-[5-[3-[[(3S)-4-benzoyl-3-methyl-piperazin-1-yl]methyl]-5-chloro-2-methyl-anilino]-1,3,4-oxadiazol-2-yl]propanenitrile]",33,49.8,219
"CCC(F)(F)C(=O)N1CCN(Cc2cc(Cl)cc(Nc3nnc(COC)o3)c2C)C[C@@H]1C [Example 8, 1-[(2S)-4-[[5-chloro-3-[[5-(methoxymethyl)-1,3,4-oxadiazol-2-yl]amino]-2-methyl-phenyl]methyl]-2-methyl-piperazin-1-yl]-2,2-difluoro-butan-1-one]",69,251,497
"COCc1nnc(Nc2cc(Cl)cc(CN3CCN(C(=O)c4ccccc4F)[C@@H](C)C3)c2C)o1 [Example 9, [(2S)-4-[[5-chloro-3-[[5-(methoxymethyl)-1,3,4-oxadiazol-2-yl]amino]-2-methyl-phenyl]methyl]-2-methyl-piperazin-1-yl]-(2-fluorophenyl)methanone]",23.5,99.3,254
"COCc1nnc(Nc2cc(Cl)cc(CN3CCN(C(=O)C4CCC(F)(F)C4)[C@@H](C)C3)c2C)o1 (stereo partly drawn) [Example 10, [(2S)-4-[[5-chloro-3-[[5-(methoxymethyl)-1,3,4-oxadiazol-2-yl]amino]-2-methyl-phenyl]methyl]-2-methyl-piperazin-1-yl]-(3,3-difluorocyclopentyl)methanone]",45.4,173,296
"CC[C@H](C)C(=O)N1CCN(Cc2cc(Cl)cc(Nc3nnc(COC)o3)c2C)C[C@@H]1C [Example 11, (2S)-1-[(2S)-4-[[5-chloro-3-[[5-(methoxymethyl)-1,3,4-oxadiazol-2-yl]amino]-2-methyl-phenyl]methyl]-2-methyl-piperazin-1-yl]-2-methyl-butan-1-one]",28.1,92.6,132
"COCc1nnc(Nc2cc(Cl)cc(CN3CCN(C(=O)C4CCC4)[C@@H](C)C3)c2C)o1 [Example 12, [(2S)-4-[[5-chloro-3-[[5-(methoxymethyl)-1,3,4-oxadiazol-2-yl]amino]-2-methyl-phenyl]methyl]-2-methyl-piperazin-1-yl]-cyclobutyl-methanone]",40.4,128,302
"Cc1cc(CN2CCN(C(=O)OC(C)(C)C)[C@@H](C)C2)c(C)c(Nc2nnc([C@H](C)O)o2)c1 [Example 28, tert-butyl (2S)-4-[[3-[[5-[(1S)-1-hydroxyethyl]-1,3,4-oxadiazol-2-yl]amino]-2,5-dimethyl-phenyl]methyl]-2-methyl-piperazine-1-carboxylate]",35.5,107,–
"Cc1c(CN2CCN(C(=O)OCC(F)(F)F)[C@@H](C)C2)cc(Cl)cc1Nc1nnc(CC#N)o1 [Example 69, 2,2,2-trifluoroethyl (2S)-4-[[5-chloro-3-[[5-(cyanomethyl)-1,3,4-oxadiazol-2-yl]amino]-2-methyl-phenyl]methyl]-2-methyl-piperazine-1-carboxylate]",70,308,–
"Cc1cc(CN2CCN(C(=O)O[C@H](C)C(F)(F)F)[C@@H](C)C2)c(C)c(Nc2nnc([C@H]3NCC[C@H]3O)o2)c1 [Example 80, [(1R)-2,2,2-trifluoro-1-methyl-ethyl] (2S)-4-[[3-[[5-[(2S,3R)-3-hydroxypyrrolidin-2-yl]-1,3,4-oxadiazol-2-yl]amino]-2,5-dimethyl-phenyl]methyl]-2-methyl-piperazine-1-carboxylate]",22.3,70,–
"Cc1cc(CN2CCN(C(=O)OCC(F)(F)F)[C@@H](C)C2)c(C)c(Nc2nnc([C@H]3NCC[C@H]3O)o2)c1 [Example 81, 2,2,2-trifluoroethyl (2S)-4-[[3-[[5-[(2S,3R)-3-hydroxypyrrolidin-2-yl]-1,3,4-oxadiazol-2-yl]amino]-2,5-dimethyl-phenyl]methyl]-2-methyl-piperazine-1-carboxylate]",110,1520,–
"CC[C@@H](C)OC(=O)N1CCN(Cc2cc(C)cc(Nc3nnc([C@H]4NCC[C@H]4O)o3)c2C)C[C@@H]1C [Example 82, [(1R)-1-methylpropyl] (2S)-4-[[3-[[5-[(2S,3R)-3-hydroxypyrrolidin-2-yl]-1,3,4-oxadiazol-2-yl]amino]-2,5-dimethyl-phenyl]methyl]-2-methyl-piperazine-1-carboxylate]",32,46,–

# — patent publication US10934282B2, “Heteroaromatic modulators of the retinoid-related orphan receptor gamma” (LEO PHARMA A/S, priority 2016, dated 2021)
